Series [1] deals with JIMT-1 cells. Nature of the series: Drug-resistant disease animal model, JIMT-1 tumors (tumor volume, bioluminescence imaging). The format is in vivo, BALB/c nude mice. How it is done: (§1) Thereafter, the tumor volume was measured for 15 days. The results are shown in FIG. 11, and the results of in-vivo bioluminescence imaging of JIMT-1-transplanted mice are shown in FIG. 12. In-vivo bioluminescence imaging was performed in a manner in which the mice were anesthetized and administered with 150 mg/kg of luciferin, after which the tumor size and the transition state were measured using a bioluminescence imaging system.

For series [2], the system named is JIMT-1 cell line. Nature of the series: Western blot of HER family / AKT signalling in JIMT-1 cells. The format is cell-based. Conditions: JIMT-1, 10 nM, 72 hr, compared to control, DM1 and Aptamer (FIG. 10). In general terms: A western blot detects proteins with antibodies after separation by electrophoresis.
In series [3] the test system is HER2-positive breast cancer cell lines (SKBR3, BT474, MDA-MB-453). Nature of the series: Apoptosis rate (sub-G1%) by PI DNA content flow cytometry, HER2-positive cell lines. Conditions: 10 nM, 72 hr (FIG. 5); for apoptosis rate (sub-G1%): HER2-positive cell lines SKBR3, BT474, MDA-MB-453. The format is cell-based. How it is done: (§2) Thereafter, the apoptosis rate (sub-G1%) of cancer cells was measured through DNA content analysis using flow cytometry.
(§3) (2) Typically, the cell cycle includes, depending on the amount of DNA in cells, G1 (cell growth phase)-S (cell replication phase)-G2/M (cell mitotic phase). […] The results of apoptosis are represented by the percentage of sub-G1 in the cell cycle.
In general terms: Flow cytometry measures light scatter and fluorescence of single cells or particles in a stream.

Series [4] relates to BT474-Tra cells. The series is described as follows: Drug-resistant disease animal model, BT474-Tra tumors. Conditions: BT474-Tra transplanted mice, 1 mg/kg intraperitoneally, 15 days (FIG. 11). The format is in vivo, BALB/c nude mice. The protocol:
as §1

Series [5] relates to HER2-positive BT474 tumors (compared with HER2-negative T47D tumors). The series is described as follows: Breast cancer animal model, tumor volume and TUNEL assay. The format is in vivo, BALB/c nude mice. Conditions: 1 mg/kg, 2 mg/kg intraperitoneally three times a week. The protocol: (1) To the fourth breast fat pads of immunodeficient 6-week-old female BALB/c nude mice, HER2-positive BT474 cancer cells (3×10^6 cells) and HER2-negative T47D cancer cells (3×10^6 cells) were transplanted, after which Aptamer-DM1 (1 mg/kg, 2 mg/kg, body weight) was intraperitoneally administered three times a week. Then, the tumor volume was measured for 18 days. The tumor volume (V) was measured using a caliper and calculated according to V=(length×width^2)/2. In the TUNEL assay, the tumors were removed from the mice, fixed with 10% neutral-buffered formalin and embedded in paraffin. The 4 μm thick tissue section was mounted on a positively charged glass slide, deparaffinized with xylene, and […] through a graded alcohol series. After antigen retrieval, the above tissue section was boiled in a citric acid buffer (pH 6.0) and immunofluorescence was performed. In situ TUNEL was performed on the above tissue section using a TUNEL kit (Roche Applied Sciences, Penzberg, GER), and the images thereof were obtained using a confocal scanning microscope.

The test system of series [6] is HER2-positive breast cancer BT474 cell line and HER2-negative breast cancer T47D cell line, co-cultured 1:1. The series is described as follows: p-His3 (mitotic arrest marker) ICC in co-cultured HER2-positive and HER2-negative cells. The format is cell-based. Conditions: for expression of p-His3 depending on HER2 expression (confocal images): BT474/T47D co-culture 1:1, 10 nM, 24 hr (FIG. 3). The protocol: (2) HER2 and a mitotic arrest marker, namely phospho-Histone H3 (p-His3), were stained with ICC, and the HER2-positive breast cancer BT474 cell line and the HER2-negative breast cancer T47D cell line, the nuclei of which were stained with DAPI, were co-cultured at a ratio of 1:1 and treated with a control (DMSO), DM1, and Aptamer-DM1 at a concentration of 10 nM for 24 hr. Thereafter, the nuclei (blue), p-His3 (green), and HER2 (red) were imaged using a confocal microscope. The number of cells in which p-His3 was detected was quantified based on whether HER2 was expressed or not.

Series [7] addresses T1, HER2 (Homo sapiens, UniProt P04626).
T1 construct: endogenous in cells; host or cells: BT474 breast cancer cells
Nature of the series: Confocal ICC of HER2 localisation / cellular internalization in BT474 cells. Conditions: BT474 cell line, 10 nM, 48 hr, confocal microscope (FIGS. 2A to 2L). The format is cell-based. The protocol:
(2) The cells cultured on 8-well chamber slides were fixed with 4% paraformaldehyde, washed with PBS, and cultured for 10 min with 0.2% Triton X-100. Thereafter, the cells were cultured overnight at 4° C. with primary antibodies in an antibody dilution buffer and then cultured at room temperature for 2 hr with fluorescence-conjugated secondary antibodies. Thereafter, the cells were mounted on ProLong Gold Antifade Reagent containing DAPI (4′,6′-diamidine-2′-phenylindole dihydrochloride). Particularly, each of the cultured breast cancer cell lines was subjected to immunocytochemistry (ICC) using a HER2 antibody, the nucleus thereof was stained with DAPI, and HER2 (red) and nucleus (blue) regions were imaged using a confocal microscope.
(1) ICC was performed using the HER2 antibody.

Series [8] concerns Trastuzumab-resistant BT474 cell line (BT474-Tra). Nature of the series: Western blot of HER family / AKT signalling in Trastuzumab-resistant BT474 cells. Conditions: 10 nM. The format is cell-based. The protocol:
For the BT474 and BT474-Tra cell lines, the expression of p185HER2, p95HER2, p-HER2, p-p95HER2, HERS, p-HER3, total-AKT, p-AKT, and PARP was analyzed via Western blot. Cell viability was measured using a CellTiter 96* Aqueous One Solution Cell Proliferation Assay [MTS, 3-(4,5-dimethylthiazol-2-yl)-5-(3-carboxymethoxyphenyl)-2-(4-sulfophenyl)-2H-tetrazolium], and the amount of produced formazan was determined by measuring absorbance at 490 nm using a Spectramax Plus 384 microplate analyzer. In the Western blot, the above cells were lysed in a lysis buffer (30 mM NaCl, 0.5% Triton X-100, 50 mM Tris-HCl; pH 7.4) containing phosphatase and a protease inhibitor, and the supernatant was collected and then the protein was […] using a Bradford protein assay kit. 30 μg of the protein was subjected to SDS-PAGE and electrophoresed with a nitrocellulose membrane. The membrane was cultured overnight at 4° C. with primary antibodies diluted in bovine serum albumin (BSA) and then cultured with horseradish peroxidase (HRP)-conjugated rabbit IgG (1:3000-1:10,000). Signal intensity was measured using an Enhanced Chemiluminescence Kit and an X-ray film, and quantified with AlphaEaseFC software.

Series [9] concerns HER2-negative breast cancer cell lines (MCF7, T47D). The series is described as follows: Apoptosis rate (sub-G1%) by PI DNA content flow cytometry, HER2-negative cell lines. The format is cell-based. Conditions: 10 nM, 72 hr (FIG. 5). The protocol:
as §2, §3

[10] abbreviates: BT474/T47D co-culture, 10 nM, 24 hr (FIG. 4).

{SH} = thiol (OH replaced by SH), used for disulfide linkage to DM1

On to “Aptamer-DM1: HER2-binding RNA aptamer (SEQ ID NO:1, 3′ thiol, 2′-O-methyl) linked via disulfide bonding to anticancer drug DM1 (GGGAGGACGAUGCGGGACUGUACGGGGCUCUGUGCAGACGACUCGCCCGA; 3' {SH}, sugars by position and backbone not given here; 2'-O-methyl modified, 3' thiol disulfide-linked to DM1)”, for which the “luciferin intensity (in-vivo bioluminescence imaging)” value in [1] (JIMT-1-transplanted mice, 1 mg/kg intraperitoneally (FIG. 12)) is “remarkably decreased”. The tumor volume entry in series [1] (JIMT-1 transplanted mice, 1 mg/kg intraperitoneally, 15 days (FIG. 11)) is reported as “significantly reduced the tumor volume”; in series [4] it was “significantly reduced the tumor volume”. The “expression of full-length p185HER2, phospho-HER2 (Tyr1221), HER3, phospho-HER3, AKT and phospho-Akt (Ser 43)” value is “significantly reduced” in series [2]; “significantly reduced” in series [8] (BT474-Tra, 72 hr, compared to control, DM1 and Aptamer (FIG. 10)). Further, the “apoptosis rate (sub-G1%)” value was “high” in [3] and “low” in series [9]. The “apoptosis rate compared to the DM1-treated group” value in [3] (HER2-positive cell lines) was “high apoptosis rate in the HER2-positive cell lines compared to the DM1-treated group”. In addition, the “tumor growth (tumor volume)” value in series [5] (18 days, BT474 and T47D transplanted tumors (FIG. 6)) is listed as “significantly decreased only the growth of HER2-positive BT474 tumors”. Further, the “apoptosis in tumors (TUNEL assay)” value in series [5] (BT474 and T47D tumors (FIG. 7)) is on record as “effectively induced apoptosis only in the HER2-positive BT474 tumors”. Moreover, the “expression of p-His3 depending on HER2 expression (confocal images)” value in series [6] is on record as “detected only in the cells in which HER2 was expressed”. Also, the “proportion of cells in which p-His3 was detected, HER2-negative cell line” value in series [6] (setting [10]) is “considerably decreased”. In addition, the “proportion of cells in which p-His3 was detected, HER2-positive cell line” value in series [6] (setting [10]) is “remarkably increased”. Further, the “HER2 localisation (cell membrane expression vs cellular internalization)” value in [7] is listed as “cellular internalization of HER2 from the cell membrane was observed”. In addition, the “expression of p95HER2” value in series [8] (BT474-Tra cells, 72 hr (FIG. 10)) is reported as “strongly inhibited”.
As for `COc1cc2cc(c1Cl)N(C)C(=O)C[C@H](OC(=O)[C@H](C)N(C)C(C)=O)[C@]1(C)O[C@H]1[C@H](C)[C@@H]1C[C@@](O)(NC(=O)O1)[C@H](OC)/C=C/C=C(\C)C2` [DM1, maytansine, reference compound], the “apoptosis rate (sub-G1%)” value in [3] and in [9] was “relatively high apoptosis rate” each time. Moreover, in [6], the “expression of p-His3 depending on HER2 expression (confocal images)” value was “found regardless of whether HER2 was expressed or not”. The “proportions of cells in which p-His3 was detected, HER2-positive cell line versus HER2-negative cell line” value in [6] (setting [10]) was “not significantly different”. Also, the “HER2 localisation (cell membrane expression vs cellular internalization)” value in series [7] is recorded as “expression of HER2 on the cell membrane was observed”.

Source of the values: patent publication US20180050114A1, “HER2 APTAMER-ANTICANCER DRUG COMPLEX FOR CANCER CELL CHEMOTHERAPY” (priority 2016, published 2018).
